Assay results taken from patent publication US10064843B2, “Bis-amide derivative and use thereof” (University-Industry Cooperation Group of Kyung Hee …, priority 2013, dated 2018).

Assays:
CypA = molecular target: T1, CypA (Homo sapiens, UniProt P62937); test: PPIase activity of CypA, coupled chymotrypsin analysis; format: biochemical; details: FIG. 7a; read-out: IC50 PPIase activity of CypA
T1 construct: GST (N, cleaved yes); made in house; host or cells: E. coli (pGEX-KG)
Description: Example 5: Analysis of Peptidyl-Prolyl Cis-Trans Isomerase Activity
The PPIase activity of CypA was determined according to a known method using the coupled chymotrypsin analysis.
The cis-trans isomerization was measured by absorbance at 390 nm in a spectrophotometer. Additionally, the remaining percentage of enzyme activity was measured at different concentrations of the inhibitor to calculate the 50% inhibition concentration (IC50) to the PPIase activity. Data was optimized via graphs by exporting using Graph Pad Prism 5.

HCV replicon cells = test: Luciferase activity in HCV replicon cells; format: cell-based; details: Hepatitis C virus; 2 μM, 72 hours; FIG. 6; read-out: inhibition of luciferase activity of HCV
Description: Additionally, a series of compounds (WJCPA-1 to WJCPA-135) having the bis-amide structure as a parent structure in common, based on the inhibitory effect of WJCPA-126 against the PPIase activity, were synthesized and their activities were confirmed. Specifically, Huh7-rep cells were treated with each of the compounds at a concentration of 2 μM for 3 days, and the expression level of NS5A was confirmed by performing an immunoblot analysis according to a known method (FIG. 5). The 32 kinds of compounds confirmed to have excellent inhibitory effect especially against the NS5A expression from the immunoblot experiment were measured regarding their inhibitory effect against luciferase activity and the results are illustrated in FIG. 6. In the same manner as in western blot, the HCV replicon cells were treated with each of the compounds at a concentration of 2 μM and incubated for 72 hours, and the total cell lysate of the cultured cells were used for the analyses of western blot and the activity of luciferase.

T1 sequence (P62937 whole entry): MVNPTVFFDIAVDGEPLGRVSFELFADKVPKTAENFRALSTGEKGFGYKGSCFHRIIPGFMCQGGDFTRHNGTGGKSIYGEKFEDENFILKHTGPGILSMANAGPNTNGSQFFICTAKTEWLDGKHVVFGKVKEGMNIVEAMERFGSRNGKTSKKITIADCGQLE

SMILES	IC50 (CypA) [nM]	inhibition at 2 µM (HCV replicon cells) [%]
Cc1ccc(C)c(C(=O)N(c2ccc(C(C)C)cc2)C(C(=O)NC2CCCCC2)c2ccc(Cl)cc2)c1 (stereo not drawn) [WJCPA30, N-[(4-chloro-phenyl)-cyclohexylcarbamoyl-methyl]-N-(4-isopropyl-phenyl)-2,5-dimethyl-benzamide]	10.6	≤ 80
COc1ccc(CCC(=O)N(c2ccc(Br)cc2)C(C(=O)NC2CCCCC2)c2ccc([N+](=O)[O-])cc2)cc1 (stereo not drawn) [WJCPA133, N-(4-bromo-phenyl)-N-[cyclohexylcarbamoyl-(4-nitro-phenyl)-methyl]-3-(4-methoxy-phenyl)-propionamide]	11.2	–
